Measured values: US7056948B2, “Use of odor reducing and cross-adapting agents to reduce animal waste malodors” (Monell Chemical Senses Center, priority 2000, dated 2006)

Tests used:
[1] = Initial olfactory evaluation by judges of swine slurry treated with a single odor-reducing or cross-adapting agent; settings: initial olfactory evaluations by several judges; 1-10% by weight
From the text: We attempted amelioration of odor from swine slurry. Swine slurry is a highly malodorous aqueous mixture of pig feces, urine, body secretions and spent feed. Each concentration was mixed with 1 gm of untreated swine slurry. Untreated swine slurry served as a control.

[2] = cited from earlier work

Row | Substance | suppression of the stronger malodor notes in swine slurry [1] | reduction in malodor in patients with urinary and fecal incontinence ([2]; 100-200 mg doses, after the first week of treatment) | dosages safely used ([2]; Chernomorsky et al.) | control of malodors in colostomy patients ([2]; oral, 100-200 mg daily) | side effects in colostomy patients ([2]; oral, 100-200 mg daily)
1 | chlorophyllin copper complex [CCC] | appeared to suppress the stronger malodor notes | marked reduction in malodor | up to 800 mg/day | sufficient to control malodors | without undesirable side effects
2 | bismuth subgallate [BiG] | appeared to suppress the stronger malodor notes |  |  |  | 
